Experimental data reported in paper PMC6727436, “Gummosin, a sesquiterpene coumarin from Ferula assa-foetida is preferentially cytotoxic to human breast and prostate cancer cell lines” (Avicenna Journal of Phytomedicine, 2019).
Converted amounts (≈) assume the structure as drawn.

What was measured:
[1] = system: MCF-7 human breast adenocarcinoma cell line; test: cells; type: cell-based; conditions: for IC50: Homo sapiens, MCF7, 48 h, read-out: IC50 (µg/mL)±SD/Cell line MCF-7; for IC50 / IC50 (µg/mL)±SD/Cell line MCF-7: MCF-7, 48 hr treatment, alamarBlue; for cytotoxic activity at highest dose: MCF-7, highest dose 50 µg/mL
Protocol: (§1) Human breast adenocarcinoma cell line (MCF-7), human prostate cancer cell line (PC3) and human normal fibroblast cell line (NIH) were obtained from Biotechnology Research Center (Mashhad, Iran) and subsequently grown in RPMI-1640 medium with 10% fetal bovine serum (Gibco, Invitrogen, Paisley, UK), penicillin (100 units/ml) and streptomycin ([…]) as antibiotics. The cell culture was done in a humidified incubator under the atmosphere of 5% CO2 at 37 °C.
(§2) To measure the cytotoxic activity of pure compounds, a non-fluorescent substrate called resazurin (alamarBlue®; BioSource Invitrogen, Paisley, UK) was used in this study. In this study, we used a method that was previously reported by Haaften et al., with some small modifications (van Haaften et al., 2011). Briefly, when the cells were in the exponential phase, 1×10^4 of the three cell lines were seeded in 96-well plates. The cells were incubated for 24 hr in order to adhere to the plastic surface of the bottom of the wells. After 24 hr, the cells were treated with 6.25, 12.5, 25 and 50 µg/mL of each compound from the stock solution of 5 mg/mL in dimethyl sulfoxide (DMSO) via serial solution prepared using RPMI-1640. The amount of DMSO in final culture media was lower than […]. Also, to rule out the effects of DMSO on cells, equal amount of DMSO was added to the untreated groups. After 48 hr, viability of the cells was measured by adding alamarBlue® reagent (10% of tissue culture volume from stock solution of 0.14 mg/mL). The absorbance of the wells was read at 600 nm using a microplate reader. Doxorubicin at concentrations of 0.1, 1 and 5 µg/mL was used as the positive control and the viability was calculated using following formula:
(§3) T=Absorbance of wells with pure compounds at 600 nm after 48 hr of incubation.
(§4) UT=Absorbance of wells with cell but without any compound at 600 nm after 48 hr of incubation.
(§5) B=Absorbance of blank (without cell and compounds) at 600 nm after 48 hr of incubation.
(§6) In this study, all the experiments were done at least in triplicate.

[2] = system: PC3 human prostate cancer cell line; test: cells; type: cell-based; conditions: for IC50: Homo sapiens, 48 h, read-out: IC50 (µg/mL)±SD/Cell line PC3; for IC50 / IC50 (µg/mL)±SD/Cell line PC3: PC3, 48 hr treatment, alamarBlue; for cytotoxic activity at highest dose: PC3, highest dose 50 µg/mL
Protocol: as §1, §2, §3, §4, §5, §6

[3] = system: NIH human normal fibroblast cell line; test: alamarBlue (resazurin) cytotoxicity assay, NIH normal cells; type: cell-based; conditions: for IC50: Homo sapiens, Fibroblast, NIH normal cells, 48 hr treatment, alamarBlue, read-out: IC50 (µg/mL)±SD/Cell line NIH
Protocol: as §1, §2, §3, §4, §5, §6

ovarian cancer cell line = system: ovarian cancer cell line; design: method as in Valiahdi et al., 2013; conditions: ref Valiahdi et al., 2013; read-out: IC50 against ovarian cancer cell line; cited from earlier work
[4] = design: method as in Iranshahi, 2018; conditions: cell line not stated; ref Iranshahi, 2018; cited from earlier work
cancer cell lines = system: cancer cell lines; design: method as in Kasaian, et al., 2015; conditions: ref Kasaian, et al., 2015; cited from earlier work

COc1cccc2c1C(=O)c1c(O)c3c(c(O)c1C2=O)C[C@@](O)(C(=O)CO)C[C@@H]3O[C@H]1C[C@H](N)[C@H](O)[C@H](C)O1 [Doxorubicin, reference compound]
IC50 [1]: 0.28 µg/mL (≈ 0.515 µM) | IC50 [2]: 0.62 µg/mL (≈ 1.14 µM)

C=C1CC[C@@H]2C(C)(C)[C@H](O)CC[C@@]2(C)[C@H]1COc1ccc2ccc(=O)oc2c1 [Farnesiferol A]
IC50 [3]: > 100 µg/mL | IC50 [1]: > 50 µg/mL | cytotoxic activity at highest dose [1]: did not show cytotoxic activity | IC50 [2]: > 50 µg/mL | cytotoxic activity at highest dose [2]: did not show cytotoxic activity

C=C1CC[C@@H](O)C(C)(C)C1CC/C(C)=C/COc1ccc2ccc(=O)oc2c1 (some centres unmarked) [Farnesiferol B]
IC50 [3]: > 100 µg/mL | IC50 [1]: < 50 µg/mL | IC50 [2]: < 50 µg/mL

C/C(=C\COc1ccc2ccc(=O)oc2c1)CC[C@@H]1C(C)(C)[C@H]2CC[C@]1(C)O2 [Farnesiferol C]
IC50 [3]: > 100 µg/mL | IC50 [1]: < 50 µg/mL | IC50 (µg/mL)±SD/Cell line MCF-7 [1]: 41.7 ± 8.2 µg/mL (≈ 109 µM) | IC50 [2]: < 50 µg/mL | IC50 (µg/mL)±SD/Cell line PC3 [2]: 43.1 ± 9.5 µg/mL (≈ 113 µM)

C=C1CCC2C(C)(C)C(O)CCC2(C)C1COc1ccc2ccc(=O)oc2c1 (centres unmarked) [Gummosin]
IC50 [3]: > 100 µg/mL | toxicity in normal cell line ([3]; NIH normal cell line, at 50 µg/mL): did not cause any toxicity | IC50 [1]: < 50 µg/mL | IC50 (µg/mL)±SD/Cell line MCF-7 [1]: 32.1 ± 2.3 µg/mL (≈ 83.9 µM) | IC50 [2]: < 50 µg/mL | IC50 (µg/mL)±SD/Cell line PC3 [2]: 30.0 ± 4.7 µg/mL (≈ 78.4 µM)

CC1(C)CC[C@H]2C(C)(C)[C@H](O)CC[C@]2(C)[C@H]1COc1ccc2ccc(=O)oc2c1 [Samarcandin]
IC50 [3]: > 100 µg/mL | IC50 [1]: > 50 µg/mL | cytotoxic activity at highest dose [1]: unable to induce toxicity | IC50 [2]: > 50 µg/mL | cytotoxic activity at highest dose [2]: unable to induce toxicity

CC(C)=CCC/C(C)=C/CC/C(C)=C/COc1ccc2ccc(=O)oc2c1 [Umbelliprenin]
IC50 [3]: > 100 µg/mL | IC50 [1]: > 50 µg/mL | IC50 [2]: > 50 µg/mL

CC1=CCC2C(C)(C)C(=O)CCC2(C)C1COc1ccc2ccc(=O)oc2c1 (centres unmarked) [conferone]
IC50 (ovarian cancer cell line): 7.79 µM

CC(C)=CCC/C(C)=C/CC/C(C)=C/Cc1c(O)c2ccccc2oc1=O [ferulenol]
IC50 (cytotoxic activity) [4]: 1 µg/mL (≈ 2.73 µM)

CC1=CC[C@@H]2C(C)(C)[C@H](O)CC[C@@]2(C)[C@@H]1COc1ccc2ccc(=O)oc2c1 [feselol, Feselol]
activity against cancer cell lines (cancer cell lines): inactive
